Experimental data: patent US20080214589A1, “Thrombin Inhibiting 2,4-Dioxo-3,4-Dihydropyrimidine Derivatives” (ASTRAZENECA AB, priority 2005, published 2008)

Target: T1, Human a-thrombin (Homo sapiens, UniProt P00734)
T1 construct: Human a-thrombin, Sigma Chemical Co. or Hematologic Technologies; purchased Sigma Chemical Co. or Hematologic Technologies
Experiment: Test B: thrombin inhibition with a chromogenic, robotic assay
Assay type: biochemical
Conditions: chromogenic substrate S-2366, 40 minutes incubation at 37° C.
Protocol: Determination of Thrombin Inhibition with a Chromogenic, Robotic Assay
The thrombin inhibitor potency is measured with a chromogenic substrate method, in a Plato 3300 robotic microplate processor (Rosys AG, CH-8634 Hombrechtikon, Switzerland), using 96-well, half volume microtitre plates (Costar, Cambridge, Mass., USA; Cat No 3690). Stock solutions of test substance in DMSO (72 μL), 0.1-1 mmol/L, are diluted serially 1:3 (24+48 μL) with DMSO to obtain ten different concentrations, which are analysed as samples in the assay. 2 μL of test sample is diluted with 124 μL assay buffer, 12 μL of chromogenic substrate solution (S-2366, Chromogenix, Mölndal, Sweden) in assay buffer and finally 12 μL of a-thrombin solution (Human a-thrombin, Sigma Chemical Co. or Hematologic Technologies) in assay buffer, are added, and the samples mixed. The final assay concentrations are: test substance 0.00068-133 μmol/L, S-2366 0.30 mmol/L, a-thrombin 0.020 NIHU/mL. The linear absorbance increment during 40 minutes incubation at 37° C. is used for calculation of percentage inhibition for the test samples, as compared to blanks without inhibitor. The IC50-robotic value, corresponding to the inhibitor concentration which causes 50% inhibition of the thrombin activity, is calculated from a log concentration vs. % inhibition curve.

**Q.** `Cc1cc(=O)n(NCC(F)(F)c2ccccn2)c(=O)n1CC(=O)NCc1cc(Cl)ccc1CN` [Example 2, N-[2-(Aminomethyl)-5-chlorobenzyl]-2-[3-[(2,2-difluoro-2-pyridin-2-ylethyl)-amino]-6-methyl-2,4-dioxo-3,4-dihydropyrimidin-1(2H)-yl]acetamide] was tested. Which IC50 did it give?
**A.** 32.7 nM

**Q.** Which IC50 does the source give for `Cc1cc(N)nc(C)c1CNC(=O)Cn1c(C)cc(=O)n(NCC(F)(F)c2ccccn2)c1=O` [5(a), N-[(6-Amino-2,4-dimethylpyridin-3-yl)methyl]-2-[3-[(2,2-difluoro-2-pyridin-2-ylethyl)amino]-6-methyl-2,4-dioxo-3,4-dihydropyrimidin-1(2H)-yl]acetamide] here?
**A.** 169 nM
